Among the data in US7858796B2, “Chemical compounds” (Glaxo Group Limited, priority 2004, dated 2010) are IC50 values, retold here.

Where only a bound is given, the exact number is not on record here.

The test has as its system human monocyte stimulated cytokine production (TNF-α). In words: Monocyte Assay (LPS-stimulated TNF-α production). It is filed as cell-based. To be noted: human CD14+ monocytes, 200 ng/mL LPS, 24 hrs, TNF-α by ELISA. As to the method:
Effect of IKK-β inhibition on human monocyte stimulated cytokine production was assessed as follows: Monocytes were isolated from heparinized whole blood by Ficoll gradient, followed by purification of CD14+ cells using MACS magnetic cell separation beads. Isolated monocytes were then adhered to 96-well culture plates at 1×10^6 cells/mL in RPMI 1640 10% FBS (JRH Biosciences, Lenexa Kans.) for 2 h. to further enrich the monocyte population. The media was then removed, cells washed once with RPMI 1640, and 0.125 mL RPMI 1640 10% FBS was added to the wells. Test compounds are added to the wells 30 minutes prior to stimulation with a final vehicle concentration of 0.1% DMSO. Monocytes were activated by the addition of 200 ng/mL endotoxin (LPS; E. coli serotype 026:B6) (Sigma, St. Louis, Mo.) and incubated for 24 hrs at 37 C. Cell-free supernates were analyzed by ELISA for TNF-α using Pharmingen matched pair Abs. Viability of the cells was determined by10% trypan blue exclusion.
In the case of `NC(=O)c1cc(-c2ccsc2)cc2c(C3CCN(S(=O)(=O)CCNC4CCC(O)CC4)CC3)c[nH]c12` (stereo not shown) [Example 19, 3-[1-({2-[(4-hydroxycyclohexyl)amino]ethyl}sulfonyl)-4-piperidinyl]-5-(3-thienyl)-1H-indole-7-carboxamide], the half-inhibitory concentration (IC50) was < 10 µM. In the case of `NC(=O)c1cc(-c2ccccc2)cc2c(C3CCN(S(=O)(=O)CCCN4CCCC4)CC3)c[nH]c12` [Example 7, 5-phenyl-3-(1-{[3-(1-pyrrolidinyl)propyl]sulfonyl}-4-piperidinyl)-1H-indole-7-carboxamide], the IC50 was < 10 µM. As for `CC(C)NCc1cccc(-c2cc(C(N)=O)c3[nH]cc(C4CCN(S(=O)(=O)CCCN(C)C)CC4)c3c2)c1` [Example 214, 3-(1-{[3-(dimethylamino)propyl]sulfonyl}-4-piperidinyl)-5-(3-{[(1-methylethyl)amino]methyl}phenyl)-1H-indole-7-carboxamide], the figure is < 10 µM; as for `Cc1nc(C)c(S(=O)(=O)N2CCC(c3c[nH]c4c(C(N)=O)cc(-c5ccccc5)cc34)CC2)s1` [Example 278, 3-{1-[(2,4-dimethyl-1,3-thiazol-5-yl)sulfonyl]-4-piperidinyl}-5-phenyl-1H-indole-7-carboxamide], < 10 µM; as for `Cc1nn(C)c(Cl)c1S(=O)(=O)N1CCC(c2c[nH]c3c(C(N)=O)cc(-c4ccccc4)cc23)CC1` [Example 273, 3-{1-[(5-chloro-1,3-dimethyl-1H-pyrazol-4-yl)sulfonyl]-4-piperidinyl}-5-phenyl-1H-indole-7-carboxamide], < 10 µM.

As to `CN(C)CCS(=O)(=O)N1CCC(c2c[nH]c3c(C(N)=O)cc(-c4ccsc4)cc23)CC1` [Example 17, 3-(1-{[2-(dimethylamino)ethyl]sulfonyl}-4-piperidinyl)-5-(3-thienyl)-1H-indole-7-carboxamide], the concentration for half-maximal inhibition (IC50) is < 10 µM. On to `CN1CCN(CCCS(=O)(=O)N2CCC(c3c[nH]c4c(C(N)=O)cc(-c5ccccc5)cc34)CC2)CC1` [Example 4, 3-(1-{[3-(4-methyl-1-piperazinyl)propyl]sulfonyl}-4-piperidinyl)-5-phenyl-1H-indole-7-carboxamide], for which the IC50 is < 10 µM. The same measure for `CCOCCCS(=O)(=O)N1CCC(c2c[nH]c3c(C(N)=O)cc(-c4ccccc4)cc23)CC1` [Example 176, 3-(1-{[3-(ethyloxy)propyl]sulfonyl}-4-piperidinyl)-5-phenyl-1H-indole-7-carboxamide]: < 10 µM; for `NC(=O)c1cc(-c2ccc(Cl)s2)cc2c(C3CCN(S(=O)(=O)CCCN4CCCC4)CC3)c[nH]c12` [Example 21, 5-(5-chloro-2-thienyl)-3-(1-{[3-(1-pyrrolidinyl)propyl]sulfonyl}-4-piperidinyl)-1H-indole-7-carboxamide]: < 10 µM. The same measure for `Cc1nn(C)c(C)c1S(=O)(=O)N1CCC(c2c[nH]c3c(C(N)=O)cc(-c4ccccc4)cc23)CC1` [Example 276, 5-phenyl-3-{1-[(1,3,5-trimethyl-1H-pyrazol-4-yl)sulfonyl]-4-piperidinyl}-1H-indole-7-carboxamide]: < 10 µM; for `NC(=O)c1cc(-c2ccsc2)cc2c(C3CCN(S(=O)(=O)CCCN4CCC(O)CC4)CC3)c[nH]c12` [Example 71, 3-(1-{[3-(4-hydroxy-1-piperidinyl)propyl]sulfonyl}-4-piperidinyl)-5-(3-thienyl)-1H-indole-7-carboxamide]: < 10 µM. As for `NC(=O)c1cc(-c2ccccc2)cc2c(C3CCN(S(=O)(=O)CCOCCN4CCCCC4)CC3)c[nH]c12` [Example 178, 5-phenyl-3-{1-[(2-{[2-(1-piperidinyl)ethyl]oxy}ethyl)sulfonyl]-4-piperidinyl}-1H-indole-7-carboxamide], the figure is < 10 µM; as for `NC(=O)c1cc(-c2ccsc2)cc2c(C3CCN(S(=O)(=O)CCCN4CCCC4)CC3)c[nH]c12` [Example 8, 3-(1-{[3-(1-pyrrolidinyl)propyl]sulfonyl}-4-piperidinyl)-5-(3-thienyl)-1H-indole-7-carboxamide], < 10 µM; as for `CN1CCN(CCCS(=O)(=O)N2CCC(c3c[nH]c4c(C(N)=O)cc(-c5cccs5)cc34)CC2)CC1` [Example 70, 3-(1-{[3-(4-methyl-1-piperazinyl)propyl]sulfonyl}-4-piperidinyl)-5-(2-thienyl)-1H-indole-7-carboxamide], < 10 µM. In the case of `NC(=O)c1cc(-c2ccsc2)cc2c(C3CCN(S(=O)(=O)CCNC4CCCC4)CC3)c[nH]c12` [Example 18, 3-(1-{[2-(cyclopentylamino)ethyl]sulfonyl}-4-piperidinyl)-5-(3-thienyl)-11 indole-7-carboxamide], the half-inhibitory concentration (IC50) was < 10 µM. As for `NC(=O)c1cc(-c2ccsc2)cc2c(C3CCN(S(=O)(=O)CCN4CCCC4)CC3)c[nH]c12` [Example 16, 3-(1-{[2-(1-pyrrolidinyl)ethyl]sulfonyl}-4-piperidinyl)-5-(3-thienyl)-1H-indole-7-carboxamide], the figure is < 10 µM. Take `CCOCCCS(=O)(=O)N1CCC(c2c[nH]c3c(C(N)=O)cc(-c4ccsc4)cc23)CC1` [Example 263, 3-(1-{[3-(ethyloxy)propyl]sulfonyl}-4-piperidinyl)-5-(3-thienyl)-1H-indole-7-carboxamide]: the IC50 was < 10 µM. `CC(O)C(C)OCCCS(=O)(=O)N1CCC(c2c[nH]c3c(C(N)=O)cc(-c4ccccc4)cc23)CC1` (stereo not shown) [Example 165, 3-[1-({3-[(2-hydroxy-1-methylpropyl)oxy]propyl}sulfonyl)-4-piperidinyl]-5-phenyl-1H-indole-7-carboxamide]: the IC50 was < 10 µM.

On to `NC(=O)c1cc(-c2ccccc2)cc2c(C3CCN(S(=O)(=O)c4cccs4)CC3)c[nH]c12` [Example 268, 5-phenyl-3-[1-(2-thienylsulfonyl)-4-piperidinyl]-1H-indole-7-carboxamide], for which the half-maximal inhibitory concentration (IC50) was < 10 µM. `CONCCCS(=O)(=O)N1CCC(c2c[nH]c3c(C(N)=O)cc(-c4ccccc4)cc23)CC1` [Example 219, 3-[1-({3-[(methyloxy)amino]propyl}sulfonyl)-4-piperidinyl]-5-phenyl-1H-indole-7-carboxamide]: the concentration for half-maximal inhibition (IC50) is < 10 µM.

Consider `CCNCc1ccc(-c2cc(C(N)=O)c3[nH]cc(C4CCN(S(=O)(=O)CCCN5CCOCC5)CC4)c3c2)s1` [Example 66, 5-{5-[(ethylamino)methyl]-2-thienyl}-3-(1-{[3-(4-morpholinyl)propyl]sulfonyl}-4-piperidinyl)-1H-indole-7-carboxamide], for which the IC50 is < 10 µM.

For the compound `NC(=O)c1cc(-c2cccs2)cc2c(C3CCN(S(=O)(=O)CCCN4CCC(O)CC4)CC3)c[nH]c12` [Example 14, 3-(1-{[3-(4-hydroxy-1-piperidinyl)propyl]sulfonyl}-4-piperidinyl)-5-(2-thienyl)-1-indole-7-carboxamide], the IC50 was < 10 µM. For the compound `NC(=O)c1cc(-c2ccccc2)cc2c(C3CCN(S(=O)(=O)CCCNC4CCNCC4)CC3)c[nH]c12` [Example 109, 5-phenyl-3-(1-{[3-(4-piperidinylamino)propyl]sulfonyl}-4-piperidinyl)-11 indole-7-carboxamide], the IC50 was < 10 µM. With `Cc1noc(C)c1S(=O)(=O)N1CCC(c2c[nH]c3c(C(N)=O)cc(-c4ccccc4)cc23)CC1` [Example 277, 3-{1-[(3,5-dimethyl-4-isoxazolyl)sulfonyl]-4-piperidinyl}-5-phenyl-1H-indole-7-carboxamide], the IC50 was < 10 µM.

As for `CC(=O)Nc1nc(C)c(S(=O)(=O)N2CCC(c3c[nH]c4c(C(N)=O)cc(-c5ccccc5)cc34)CC2)s1` [Example 272, 3-(1-{[2-(acetylamino)-4-methyl-1,3-thiazol-5-yl]sulfonyl}-4-piperidinyl)-5-phenyl-1H-indole-7-carboxamide], the IC50 is < 10 µM. The same measure for `NC(=O)c1cc(-c2ccccc2)cc2c(C3CCN(S(=O)(=O)CCO)CC3)c[nH]c12` [Example 20, 3-{1-[(2-hydroxyethyl)sulfonyl]-4-piperidinyl}-5-phenyl-1H-indole-7-carboxamide]: < 10 µM; for `CN(C)CCCS(=O)(=O)N1CCC(c2c[nH]c3c(C(N)=O)cc(-c4ccccc4)cc23)CC1` [Example 3, 3-(1-{[3-(dimethylamino)propyl]sulfonyl}-4-piperidinyl)-5-phenyl-1H-indole-7-carboxamide]: < 10 µM; for `NC(=O)c1cc(-c2cccs2)cc2c(C3CCN(S(=O)(=O)CCCN4CCCC4)CC3)c[nH]c12` [Example 11, 3-(1-{[3-(1-pyrrolidinyl)propyl]sulfonyl}-4-piperidinyl)-5-(2-thienyl)-1 indole-7-carboxamide]: < 10 µM.

As to `CN(C)CCCS(=O)(=O)N1CCC(c2c[nH]c3c(C(N)=O)cc(-c4ccsc4)cc23)CC1` [Example 9, 3-(1-{[3-(dimethylamino)propyl]sulfonyl}-4-piperidinyl)-5-(3-thienyl)-1H-indole-7-carboxamide], the IC50 was < 10 µM. The same measure for `NC(=O)c1cc(-c2ccc(F)cc2)cc2c(C3CCN(S(=O)(=O)CCCN4CCCC4)CC3)c[nH]c12` [Example 75, 5-(4-fluorophenyl)-3-(1-{[3-(1-pyrrolidinyl)propyl]sulfonyl}-4-piperidinyl)-1H-indole-7-carboxamide]: < 10 µM. For the compound `NC(=O)c1cc(-c2ccsc2)cc2c(C3CCN(S(=O)(=O)CCCN4CCOCC4)CC3)c[nH]c12` [Example 74, 3-(1-{[3-(4-morpholinyl)propyl]sulfonyl}-4-piperidinyl)-5-(3-thienyl)-1H-indole-7-carboxamide], the IC50 was < 10 µM.
